The record followed here is US6127375A, “4,4-disubstituted-3,4-dihydro-2(1H)-quinazolinthiones useful as HIV reverse transcriptase inhibitors” (Dupont Pharmaceuticals Company, priority 1999, dated 2000).

Values after ≈ are worked out from the molar mass of the structure shown.

This assay relates to HIV-1 (RF). Kind of assay: HIV RNA Assay: Microplate Based Compound Evaluation in HIV-1 Infected MT-2 Cells. The class given is cell-based. The note with it: Human immunodeficiency virus 1, MT2, 72 h; HIV-1 (RF) in MT-2 cells, 3 days at 37° C.; value to which virus inoculum was standardized (~3×10^5 PFU per assay well); read-out: IC90 value (concentration of compound required to reduce the HIV RNA level by 90%). As to the method:
Plasmid pDAB 72 containing both gag and pol sequences of BH10 (bp 113-1816) cloned into PTZ 19R was prepared according to Erickson-Viitanen et al. AIDS Research and Human Retroviruses 1989, 5, 577. The plasmid was linearized with Bam HI prior to the generation of in vitro RNA transcripts using the Riboprobe Gemini system II kit (Promega) with T7 RNA polymerase. Synthesized RNA was purified by treatment with RNase free DNAse (Promega), phenol-chloroform extraction, and ethanol precipitation. RNA transcripts were dissolved in water, and stored at -70° C. The concentration of RNA was determined from the A260.
Biotinylated capture probes were purified by HPLC after synthesis on an Applied Biosystems (Foster City, Calif.) DNA synthesizer by addition of biotin to the 5' terminal end of the oligonucleotide, using the biotin-phosphoramidite reagent of Cocuzza, Tet. Lett. 1989, 30, 6287. […]
MT-2 and MT-4 cells were maintained in RPMI 1640 supplemented with 5% fetal calf serum (FCS) for MT-2 cells or 10% FCS for MT-4 cells, 2 mM L-glutamine and 50 μg/mL gentamycin, all from Gibco. […] Infectious titers of HIV-1(RF) stocks were 1-3×10^7 PFU (plaque forming units)/mL as measured by plaque assay on MT-2 cells (see below). […]

Take `Nc1ccn([C@H]2CC[C@@H](CO)O2)c(=O)n1` [ddC, 2',3'-dideoxycytidine]: the IC90 was found to be 0.2 µg/mL (≈ 0.947 µM).
